According to ChEMBL document CHEMBL1153040, “HIF-1alpha peptide derivatives with modifications at the hydroxyproline residue as activators of HIF-1alpha” (Bioorg Med Chem Lett, 2009):
Active and inactive are the calls of the source. The rule behind the calls is not given here.

Each molecule was assayed on HeLa (assay: Induction of HIFalpha stabilization in human HeLa cells assessed as HIFalpha accumulation at 1 mM incubated under normoxic condition for 6 hrs by Western blot analysis).
Format: functional, cell-based

In the case of `CC[C@@H](C)[C@H](NC(=O)[C@H](Cc1ccc(O)cc1)NC(=O)[C@H](CC(C)C)NC(=O)[C@H](C)NC(=O)[C@H](CC(C)C)NC(=O)[C@H](C)NC(=O)[C@H](CCC(=O)O)NC(=O)[C@H](CC(C)C)NC(=O)[C@H](CC(=O)O)NC(=O)[C@H](CC(C)C)NC(=O)[C@@H](N)CC(=O)O)C(=O)N1CCC[C@H]1C(=O)N[C@@H](C)C(=O)N[C@@H](CC(=O)O)C(=O)N[C@@H](CC(=O)O)C(=O)N[C@@H](CC(=O)O)C(=O)N[C@@H](Cc1ccccc1)C(=O)N[C@@H](CCC(N)=O)C(=O)N[C@@H](CC(C)C)C(=O)N[C@@H](CCCNC(=N)N)C(N)=O`, the Activity is reported as “inactive”.
For `CC[C@@H](C)[C@H](NC(=O)[C@H](Cc1ccc(O)cc1)NC(=O)[C@@H]1C[C@@H](O)CN1C(=O)[C@H](C)NC(=O)[C@H](CC(C)C)NC(=O)[C@H](C)NC(=O)[C@H](CCC(=O)O)NC(=O)[C@H](CC(C)C)NC(=O)[C@H](CC(=O)O)NC(=O)[C@H](CC(C)C)NC(=O)[C@@H](N)CC(=O)O)C(=O)N1CCC[C@H]1C(=O)N[C@@H](C)C(=O)N[C@@H](CC(=O)O)C(=O)N[C@@H](CC(=O)O)C(=O)N[C@@H](CC(=O)O)C(=O)N[C@@H](Cc1ccccc1)C(=O)N[C@@H](CCC(N)=O)C(=O)N[C@@H](CC(C)C)C(=O)N[C@@H](CCCNC(=N)N)C(N)=O`, the Activity was “Active”.
In the case of `CC[C@@H](C)[C@H](NC(=O)[C@H](Cc1ccc(O)cc1)NC(=O)[C@H](CCO)NC(=O)[C@H](C)NC(=O)[C@H](CC(C)C)NC(=O)[C@H](C)NC(=O)[C@H](CCC(=O)O)NC(=O)[C@H](CC(C)C)NC(=O)[C@H](CC(=O)O)NC(=O)[C@H](CC(C)C)NC(=O)[C@@H](N)CC(=O)O)C(=O)N1CCC[C@H]1C(=O)N[C@@H](C)C(=O)N[C@@H](CC(=O)O)C(=O)N[C@@H](CC(=O)O)C(=O)N[C@@H](CC(=O)O)C(=O)N[C@@H](Cc1ccccc1)C(=O)N[C@@H](CCC(N)=O)C(=O)N[C@@H](CC(C)C)C(=O)N[C@@H](CCCNC(=N)N)C(N)=O`, the Activity is reported as “Active”.
`CC[C@@H](C)[C@H](NC(=O)[C@H](Cc1ccc(O)cc1)NC(=O)[C@@H]1C[C@@H](F)CN1C(=O)[C@H](C)NC(=O)[C@H](CC(C)C)NC(=O)[C@H](C)NC(=O)[C@H](CCC(=O)O)NC(=O)[C@H](CC(C)C)NC(=O)[C@H](CC(=O)O)NC(=O)[C@H](CC(C)C)NC(=O)[C@@H](N)CC(=O)O)C(=O)N1CCC[C@H]1C(=O)N[C@@H](C)C(=O)N[C@@H](CC(=O)O)C(=O)N[C@@H](CC(=O)O)C(=O)N[C@@H](CC(=O)O)C(=O)N[C@@H](Cc1ccccc1)C(=O)N[C@@H](CCC(N)=O)C(=O)N[C@@H](CC(C)C)C(=O)N[C@@H](CCCNC(=N)N)C(N)=O` was tested, and the Activity was “Active”.

Each molecule was assayed against Hypoxia-inducible factor 1-alpha (Homo sapiens, UniProt Q16665) (assay: Inhibition of interaction between fluorescein-labeled proline hydroxylated human HIFalpha (556 to 575) and human VHL-human elongin B-human elongin C complex expressed in Escherichia coli by fluorescence polarization assay).
Chain of Hypoxia-inducible factor 1-alpha (Q16665 whole entry): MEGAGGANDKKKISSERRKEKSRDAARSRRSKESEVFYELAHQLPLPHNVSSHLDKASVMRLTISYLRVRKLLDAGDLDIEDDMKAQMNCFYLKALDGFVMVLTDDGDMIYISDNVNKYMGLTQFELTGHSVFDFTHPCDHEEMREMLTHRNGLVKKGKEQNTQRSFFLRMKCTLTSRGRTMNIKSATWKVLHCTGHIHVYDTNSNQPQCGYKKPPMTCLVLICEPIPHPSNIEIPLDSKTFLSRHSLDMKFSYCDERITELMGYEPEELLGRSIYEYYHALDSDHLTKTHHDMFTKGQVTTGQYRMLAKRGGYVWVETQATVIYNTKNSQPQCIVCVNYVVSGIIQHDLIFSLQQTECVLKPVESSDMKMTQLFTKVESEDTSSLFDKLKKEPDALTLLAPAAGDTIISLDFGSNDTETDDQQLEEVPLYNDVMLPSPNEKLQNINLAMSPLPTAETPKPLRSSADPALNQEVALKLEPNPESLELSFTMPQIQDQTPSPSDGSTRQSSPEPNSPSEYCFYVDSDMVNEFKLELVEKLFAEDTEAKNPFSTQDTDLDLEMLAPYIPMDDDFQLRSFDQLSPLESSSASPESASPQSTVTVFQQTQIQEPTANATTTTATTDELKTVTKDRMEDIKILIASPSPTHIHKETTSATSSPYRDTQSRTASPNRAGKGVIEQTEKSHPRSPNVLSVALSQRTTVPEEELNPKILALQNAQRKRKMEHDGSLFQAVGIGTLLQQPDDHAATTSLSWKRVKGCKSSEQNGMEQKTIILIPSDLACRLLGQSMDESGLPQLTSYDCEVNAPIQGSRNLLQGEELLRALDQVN

`CC[C@@H](C)[C@H](NC(=O)[C@H](Cc1ccc(O)cc1)NC(=O)[C@H](CC(N)=O)NC(=O)[C@H](C)NC(=O)[C@H](CC(C)C)NC(=O)[C@H](C)NC(=O)[C@H](CCC(=O)O)NC(=O)[C@H](CC(C)C)NC(=O)[C@H](CC(=O)O)NC(=O)[C@H](CC(C)C)NC(=O)[C@@H](N)CC(=O)O)C(=O)N1CCC[C@H]1C(=O)N[C@@H](C)C(=O)N[C@@H](CC(=O)O)C(=O)N[C@@H](CC(=O)O)C(=O)N[C@@H](CC(=O)O)C(=O)N[C@@H](Cc1ccccc1)C(=O)N[C@@H](CCC(N)=O)C(=O)N[C@@H](CC(C)C)C(=O)N[C@@H](CCCNC(=N)N)C(N)=O` and `CC[C@@H](C)[C@H](NC(=O)[C@H](Cc1ccc(O)cc1)NC(=O)[C@H](CC(=O)O)NC(=O)[C@H](C)NC(=O)[C@H](CC(C)C)NC(=O)[C@H](C)NC(=O)[C@H](CCC(=O)O)NC(=O)[C@H](CC(C)C)NC(=O)[C@H](CC(=O)O)NC(=O)[C@H](CC(C)C)NC(=O)[C@@H](N)CC(=O)O)C(=O)N1CCC[C@H]1C(=O)N[C@@H](C)C(=O)N[C@@H](CC(=O)O)C(=O)N[C@@H](CC(=O)O)C(=O)N[C@@H](CC(=O)O)C(=O)N[C@@H](Cc1ccccc1)C(=O)N[C@@H](CCC(N)=O)C(=O)N[C@@H](CC(C)C)C(=O)N[C@@H](CCCNC(=N)N)C(N)=O` are within 1.5-fold of each other in Ki: 13 µM for the first, 15 µM for the second.

Going from `CC[C@@H](C)[C@H](NC(=O)[C@H](Cc1ccc(O)cc1)NC(=O)[C@H](CC(C)C)NC(=O)[C@H](C)NC(=O)[C@H](CC(C)C)NC(=O)[C@H](C)NC(=O)[C@H](CCC(=O)O)NC(=O)[C@H](CC(C)C)NC(=O)[C@H](CC(=O)O)NC(=O)[C@H](CC(C)C)NC(=O)[C@@H](N)CC(=O)O)C(=O)N1CCC[C@H]1C(=O)N[C@@H](C)C(=O)N[C@@H](CC(=O)O)C(=O)N[C@@H](CC(=O)O)C(=O)N[C@@H](CC(=O)O)C(=O)N[C@@H](Cc1ccccc1)C(=O)N[C@@H](CCC(N)=O)C(=O)N[C@@H](CC(C)C)C(=O)N[C@@H](CCCNC(=N)N)C(N)=O` to `CC[C@@H](C)[C@H](NC(=O)[C@H](Cc1ccc(O)cc1)NC(=O)[C@@H](NC(=O)[C@H](C)NC(=O)[C@H](CC(C)C)NC(=O)[C@H](C)NC(=O)[C@H](CCC(=O)O)NC(=O)[C@H](CC(C)C)NC(=O)[C@H](CC(=O)O)NC(=O)[C@H](CC(C)C)NC(=O)[C@@H](N)CC(=O)O)C(C)C)C(=O)N1CCC[C@H]1C(=O)N[C@@H](C)C(=O)N[C@@H](CC(=O)O)C(=O)N[C@@H](CC(=O)O)C(=O)N[C@@H](CC(=O)O)C(=O)N[C@@H](Cc1ccccc1)C(=O)N[C@@H](CCC(N)=O)C(=O)N[C@@H](CC(C)C)C(=O)N[C@@H](CCCNC(=N)N)C(N)=O`, the Ki falls from 58 µM to 16 µM (3.6-fold).

Compared with `CC[C@@H](C)[C@H](NC(=O)[C@H](C)NC(=O)[C@H](CC(C)C)NC(=O)[C@H](C)NC(=O)[C@H](CCC(=O)O)NC(=O)[C@H](CC(C)C)NC(=O)[C@H](CC(=O)O)NC(=O)[C@H](CC(C)C)NC(=O)[C@@H](N)CC(=O)O)C(=O)N[C@@H](Cc1ccc(O)cc1)C(=O)N[C@H](C(=O)N1CCC[C@H]1C(=O)N[C@@H](C)C(=O)N[C@@H](CC(=O)O)C(=O)N[C@@H](CC(=O)O)C(=O)N[C@@H](CC(=O)O)C(=O)N[C@@H](Cc1ccccc1)C(=O)N[C@@H](CCC(N)=O)C(=O)N[C@@H](CC(C)C)C(=O)N[C@@H](CCCN=C(N)N)C(N)=O)[C@H](C)CC`, `CC[C@@H](C)[C@H](NC(=O)[C@H](Cc1ccc(O)cc1)NC(=O)[C@@H](NC(=O)[C@H](C)NC(=O)[C@H](CC(C)C)NC(=O)[C@H](C)NC(=O)[C@H](CCC(=O)O)NC(=O)[C@H](CC(C)C)NC(=O)[C@H](CC(=O)O)NC(=O)[C@H](CC(C)C)NC(=O)[C@@H](N)CC(=O)O)[C@H](C)O)C(=O)N1CCC[C@H]1C(=O)N[C@@H](C)C(=O)N[C@@H](CC(=O)O)C(=O)N[C@@H](CC(=O)O)C(=O)N[C@@H](CC(=O)O)C(=O)N[C@@H](Cc1ccccc1)C(=O)N[C@@H](CCC(N)=O)C(=O)N[C@@H](CC(C)C)C(=O)N[C@@H](CCCN=C(N)N)C(N)=O` is 2.8-fold lower in Ki: 50 µM for the first, 18 µM for the second. The second binds more tightly here.

Compared with `CC[C@@H](C)[C@H](NC(=O)[C@H](Cc1ccc(O)cc1)NC(=O)[C@@H]1CCCCN1C(=O)[C@H](C)NC(=O)[C@H](CC(C)C)NC(=O)[C@H](C)NC(=O)[C@H](CCC(=O)O)NC(=O)[C@H](CC(C)C)NC(=O)[C@H](CC(=O)O)NC(=O)[C@H](CC(C)C)NC(=O)[C@@H](N)CC(=O)O)C(=O)N1CCC[C@H]1C(=O)N[C@@H](C)C(=O)N[C@@H](CC(=O)O)C(=O)N[C@@H](CC(=O)O)C(=O)N[C@@H](CC(=O)O)C(=O)N[C@@H](Cc1ccccc1)C(=O)N[C@@H](CCC(N)=O)C(=O)N[C@@H](CC(C)C)C(=O)N[C@@H](CCCN=C(N)N)C(N)=O`, `CC[C@@H](C)[C@H](NC(=O)[C@H](Cc1ccc(O)cc1)NC(=O)[C@@H]1C[C@@H](O)CN1C(=O)[C@H](C)NC(=O)[C@H](CC(C)C)NC(=O)[C@H](C)NC(=O)[C@H](CCC(=O)O)NC(=O)[C@H](CC(C)C)NC(=O)[C@H](CC(=O)O)NC(=O)[C@H](CC(C)C)NC(=O)[C@@H](N)CC(=O)O)C(=O)N1CCC[C@H]1C(=O)N[C@@H](C)C(=O)N[C@@H](CC(=O)O)C(=O)N[C@@H](CC(=O)O)C(=O)N[C@@H](CC(=O)O)C(=O)N[C@@H](Cc1ccccc1)C(=O)N[C@@H](CCC(N)=O)C(=O)N[C@@H](CC(C)C)C(=O)N[C@@H](CCCN=C(N)N)C(N)=O` is 21-fold lower in Ki: 77 µM for the first, 3.7 µM for the second. The second binds more tightly here.

Going from `CC[C@@H](C)[C@H](NC(=O)[C@H](Cc1ccc(O)cc1)NC(=O)[C@H](CCN)NC(=O)[C@H](C)NC(=O)[C@H](CC(C)C)NC(=O)[C@H](C)NC(=O)[C@H](CCC(=O)O)NC(=O)[C@H](CC(C)C)NC(=O)[C@H](CC(=O)O)NC(=O)[C@H](CC(C)C)NC(=O)[C@@H](N)CC(=O)O)C(=O)N1CCC[C@H]1C(=O)N[C@@H](C)C(=O)N[C@@H](CC(=O)O)C(=O)N[C@@H](CC(=O)O)C(=O)N[C@@H](CC(=O)O)C(=O)N[C@@H](Cc1ccccc1)C(=O)N[C@@H](CCC(N)=O)C(=O)N[C@@H](CC(C)C)C(=O)N[C@@H](CCCN=C(N)N)C(N)=O` to `CC[C@@H](C)[C@H](NC(=O)[C@H](Cc1ccc(O)cc1)NC(=O)[C@H](CCO)NC(=O)[C@H](C)NC(=O)[C@H](CC(C)C)NC(=O)[C@H](C)NC(=O)[C@H](CCC(=O)O)NC(=O)[C@H](CC(C)C)NC(=O)[C@H](CC(=O)O)NC(=O)[C@H](CC(C)C)NC(=O)[C@@H](N)CC(=O)O)C(=O)N1CCC[C@H]1C(=O)N[C@@H](C)C(=O)N[C@@H](CC(=O)O)C(=O)N[C@@H](CC(=O)O)C(=O)N[C@@H](CC(=O)O)C(=O)N[C@@H](Cc1ccccc1)C(=O)N[C@@H](CCC(N)=O)C(=O)N[C@@H](CC(C)C)C(=O)N[C@@H](CCCN=C(N)N)C(N)=O`, the Ki falls from 109 µM to 3.4 µM (32-fold). The second binds more tightly here.

Compared with `CC[C@@H](C)[C@H](NC(=O)[C@H](Cc1ccc(O)cc1)NC(=O)[C@@H]1C[C@@H](F)CN1C(=O)[C@H](C)NC(=O)[C@H](CC(C)C)NC(=O)[C@H](C)NC(=O)[C@H](CCC(=O)O)NC(=O)[C@H](CC(C)C)NC(=O)[C@H](CC(=O)O)NC(=O)[C@H](CC(C)C)NC(=O)[C@@H](N)CC(=O)O)C(=O)N1CCC[C@H]1C(=O)N[C@@H](C)C(=O)N[C@@H](CC(=O)O)C(=O)N[C@@H](CC(=O)O)C(=O)N[C@@H](CC(=O)O)C(=O)N[C@@H](Cc1ccccc1)C(=O)N[C@@H](CCC(N)=O)C(=O)N[C@@H](CC(C)C)C(=O)N[C@@H](CCCNC(=N)N)C(N)=O`, `CC[C@@H](C)[C@H](NC(=O)[C@H](Cc1ccc(O)cc1)NC(=O)[C@@H]1CCCN1C(=O)[C@H](C)NC(=O)[C@H](CC(C)C)NC(=O)[C@H](C)NC(=O)[C@H](CCC(=O)O)NC(=O)[C@H](CC(C)C)NC(=O)[C@H](CC(=O)O)NC(=O)[C@H](CC(C)C)NC(=O)[C@@H](N)CC(=O)O)C(=O)N1CCC[C@H]1C(=O)N[C@@H](C)C(=O)N[C@@H](CC(=O)O)C(=O)N[C@@H](CC(=O)O)C(=O)N[C@@H](CC(=O)O)C(=O)N[C@@H](Cc1ccccc1)C(=O)N[C@@H](CCC(N)=O)C(=O)N[C@@H](CC(C)C)C(=O)N[C@@H](CCCNC(=N)N)C(N)=O` is higher in Ki: 5.8 µM for the first, over 500 µM for the second. The first binds more tightly here.
